Legend:
RAW264.7 cells = test: Cytokine (TNFα) response of mouse macrophage cell line; Table 2 'Murine'; type: cell-based; set-up: Maximum cytokine response Murine: unit not given here; conditions: NR = no response
Method: Compounds were also tested in a mouse macrophage cell line (FIG. 4B). RAW264.7 cells were subjected to increasing concentrations of the compounds and assessed for production of the cytokine TNFα.

[1] = tested on: peripheral blood mononuclear cells (PBMCs); test: IL-6 induction in fresh human PBMCs; type: cell-based; conditions: human IL-6; NR = no response
Method: Tumor necrosis factor alpha (TNFα) and IL-6 production in peripheral blood mononuclear cells (PBMCs) was measured after exposure to various concentrations of the DAT compounds synthesized as shown above. Initial studies focused on two different methods of delivery of the DAT compounds to PBMC cultures. In the first delivery method, the indicated derivative compound was dissolved in isopropanol, serially diluted, and then dried to the bottom of a tissue culture plate. In the second delivery method, the indicated derivative compound was dissolved in DMSO and serially diluted into tissue culture media. In each method, PBMCs were added to the compounds and incubated at 37° C. TNFα (FIG. 1A) and IL-6 (FIG. 1B) were measured after 18-24 hours after treatment by ELISA assay.
The isolated PBMCs were exposed to increasing concentrations of the indicated compounds resuspended in DMSO and serially diluted in media. IL-6 levels were determined from supernatants eighteen hours after treatment (FIG. 3).

SMILES	Maximum cytokine response Murine (RAW264.7 cells)	Minimal Effective Concentration Murine (RAW264.7 cells) [µM]	Maximum cytokine response h-IL-6 [1] [OD]	Minimal Effective Concentration h-IL-6 [1] [µM]
COc1ccc(C(F)(F)F)cc1C(=O)OC[C@H]1O[C@H](O[C@H]2O[C@H](COC(=O)c3cc(C(F)(F)F)ccc3OC)[C@@H](O)[C@H](O)[C@H]2O)[C@H](O)[C@@H](O)[C@@H]1O [UM1045]	1.3	0.05		
COc1cc(-c2cccc(C(=O)OC[C@H]3O[C@H](O[C@H]4O[C@H](COC(=O)c5cccc(-c6ccc(F)c(OC)c6)c5)[C@@H](O)[C@H](O)[C@H]4O)[C@H](O)[C@@H](O)[C@@H]3O)c2)ccc1F [UM1059]	1.8	33		
Cc1ccc(C)c(C(C)(C)CC(=O)OC[C@H]2O[C@H](O[C@H]3O[C@H](COC(=O)CC(C)(C)c4cc(C)ccc4C)[C@@H](O)[C@H](O)[C@H]3O)[C@H](O)[C@@H](O)[C@@H]2O)c1 [UM1137]			1	100
O=C(OC[C@H]1O[C@H](O[C@H]2O[C@H](COC(=O)c3cccc(C(F)(F)F)c3O)[C@@H](O)[C@H](O)[C@H]2O)[C@H](O)[C@@H](O)[C@@H]1O)c1cccc(C(F)(F)F)c1O [UM1053]			0.5	100
O=C(OC[C@H]1O[C@H](O[C@H]2O[C@H](COC(=O)c3ccc(C(F)(F)F)cc3C(F)(F)F)[C@@H](O)[C@H](O)[C@H]2O)[C@H](O)[C@@H](O)[C@@H]1O)c1ccc(C(F)(F)F)cc1C(F)(F)F [UM1084]	2.9	33	3	100
CCOc1cc(C(C)(C)C)ccc1C(=O)OC[C@H]1O[C@H](O[C@H]2O[C@H](COC(=O)c3ccc(C(C)(C)C)cc3OCC)[C@@H](O)[C@H](O)[C@H]2O)[C@H](O)[C@@H](O)[C@@H]1O [UM1132]			2.6	100
Cc1cc(C)cc(C(=O)NC[C@H]2O[C@H](O[C@H]3O[C@H](CNC(=O)c4cc(C)cc(C)c4)[C@@H](O)[C@H](O)[C@H]3O)[C@H](O)[C@@H](O)[C@@H]2O)c1 [UM1108]	33	3		
Cc1cc(C)c(C)c(C(=O)OC[C@H]2O[C@H](O[C@H]3O[C@H](COC(=O)c4c(C)c(C)cc(C)c4C)[C@@H](O)[C@H](O)[C@H]3O)[C@H](O)[C@@H](O)[C@@H]2O)c1C [UM1113]	11	2.5		
CC(C)(C)c1ccc(O)c(C(=O)NC[C@H]2O[C@H](O[C@H]3O[C@H](CNC(=O)c4cc(C(C)(C)C)ccc4O)[C@@H](O)[C@H](O)[C@H]3O)[C@H](O)[C@@H](O)[C@@H]2O)c1 [UM1106]	11	3		
O=C(OC[C@H]1O[C@H](O[C@H]2O[C@H](COC(=O)c3ccccc3-c3ccccc3)[C@@H](O)[C@H](O)[C@H]2O)[C@H](O)[C@@H](O)[C@@H]1O)c1ccccc1-c1ccccc1 [UM1039]	0.9	33		
O=C(OC[C@H]1O[C@H](O[C@H]2O[C@H](COC(=O)c3cccc(-c4cccc(O)c4)c3)[C@@H](O)[C@H](O)[C@H]2O)[C@H](O)[C@@H](O)[C@@H]1O)c1cccc(-c2cccc(O)c2)c1 [UM1057]	1.8	33		
COc1cccc(C(=O)OC[C@H]2O[C@H](O[C@H]3O[C@H](COC(=O)c4cccc(OC)c4OC)[C@@H](O)[C@H](O)[C@H]3O)[C@H](O)[C@@H](O)[C@@H]2O)c1OC [UM1013]	3	37		
Cc1cccc(C)c1C(=O)OC[C@H]1O[C@H](O[C@H]2O[C@H](COC(=O)c3c(C)cccc3C)[C@@H](O)[C@H](O)[C@H]2O)[C@H](O)[C@@H](O)[C@@H]1O [UM1114]	11	2.5		
COc1ccc(C(=O)OC[C@H]2O[C@H](O[C@H]3O[C@H](COC(=O)c4ccc(OC)cc4C(F)(F)F)[C@@H](O)[C@H](O)[C@H]3O)[C@H](O)[C@@H](O)[C@@H]2O)c(C(F)(F)F)c1 [UM1067]	1.5	100		
O=C(OC[C@H]1O[C@H](O[C@H]2O[C@H](CO)[C@@H](O)[C@H](O)[C@H]2O)[C@H](O)[C@@H](O)[C@@H]1O)c1ccccc1C(F)(F)F [UM1121]	11	2.5		
O=C(OC[C@H]1O[C@H](O[C@H]2O[C@H](CO)[C@@H](O)[C@H](O)[C@H]2O)[C@H](O)[C@@H](O)[C@@H]1O)c1ccc([N+](=O)[O-])cc1[N+](=O)[O-] [UM1119]	11	2.2		

SMILES	Maximum cytokine response Murine (RAW264.7 cells)	Minimal Effective Concentration Murine (RAW264.7 cells) [µM]	Maximum cytokine response h-IL-6 [1] [OD]	Minimal Effective Concentration h-IL-6 [1] [µM]
O=C(NC[C@H]1O[C@H](O[C@H]2O[C@H](CNC(=O)c3ccccc3C(F)(F)F)[C@@H](O)[C@H](O)[C@H]2O)[C@H](O)[C@@H](O)[C@@H]1O)c1ccccc1C(F)(F)F [UM1112]	2	100		
O=C(OC[C@H]1O[C@H](O[C@H]2O[C@H](COC(=O)c3cc(C(F)(F)F)cc(C(F)(F)F)c3)[C@@H](O)[C@H](O)[C@H]2O)[C@H](O)[C@@H](O)[C@@H]1O)c1cc(C(F)(F)F)cc(C(F)(F)F)c1 [UM1054]			1.5	100
CN(C)c1cccc(C(=O)OC[C@H]2O[C@H](O[C@H]3O[C@H](COC(=O)c4cccc(N(C)C)c4)[C@@H](O)[C@H](O)[C@H]3O)[C@H](O)[C@@H](O)[C@@H]2O)c1 [UM1076]	1.3	3.7		
CCc1cc(CC)cc(C(=O)NC[C@H]2O[C@H](O[C@H]3O[C@H](CNC(=O)c4cc(CC)cc(CC)c4)[C@@H](O)[C@H](O)[C@H]3O)[C@H](O)[C@@H](O)[C@@H]2O)c1 [UM1109]	0.4	3.2		
COc1cc(C(=O)OC[C@H]2O[C@H](O[C@H]3O[C@H](COC(=O)c4cc(OC)c(Br)c(OC)c4)[C@@H](O)[C@H](O)[C@H]3O)[C@H](O)[C@@H](O)[C@@H]2O)cc(OC)c1Br [UM1077]			2.5	100
O=C(OC[C@H]1O[C@H](O[C@H]2O[C@H](COC(=O)c3cc(O)cc(-c4ccccc4)c3)[C@@H](O)[C@H](O)[C@H]2O)[C@H](O)[C@@H](O)[C@@H]1O)c1cc(O)cc(-c2ccccc2)c1 [UM1061]	3	100		
Cc1cc(C)c(C(=O)OC[C@H]2O[C@H](O[C@H]3O[C@H](COC(=O)c4c(C)cc(C)cc4C)[C@@H](O)[C@H](O)[C@H]3O)[C@H](O)[C@@H](O)[C@@H]2O)c(C)c1 [UM1115]	11	3.3		
CCOc1cc(C(=O)OC[C@H]2O[C@H](O[C@H]3O[C@H](COC(=O)c4ccc(OCc5ccccc5)c(OCC)c4)[C@@H](O)[C@H](O)[C@H]3O)[C@H](O)[C@@H](O)[C@@H]2O)ccc1OCc1ccccc1 [UM1134]			0.5	100
CCOc1cc(OCC)cc(C(=O)NC[C@H]2O[C@H](O[C@H]3O[C@H](CNC(=O)c4cc(OCC)cc(OCC)c4)[C@@H](O)[C@H](O)[C@H]3O)[C@H](O)[C@@H](O)[C@@H]2O)c1 [UM1105]	11	3		
CCc1cc(CC)cc(C(=O)OCC2OC(OC3OC(COC(=O)c4cc(CC)cc(CC)c4)C(O)C(O)C3O)C(O)C(O)C2O)c1 (stereo not drawn) [UM1017]	2.5	4.1		
O=C(OC[C@H]1O[C@H](O[C@H]2O[C@H](COC(=O)c3cccc(-c4ccccc4O)c3)[C@@H](O)[C@H](O)[C@H]2O)[C@H](O)[C@@H](O)[C@@H]1O)c1cccc(-c2ccccc2O)c1 [UM1060]			3.3	33.3
Cc1ccc(-c2cccc(C(=O)OC[C@H]3O[C@H](O[C@H]4O[C@H](COC(=O)c5cccc(-c6ccc(C)cc6)c5)[C@@H](O)[C@H](O)[C@H]4O)[C@H](O)[C@@H](O)[C@@H]3O)c2)cc1 [UM1058]	2.5	33		
O=C(OC[C@H]1O[C@H](O[C@H]2O[C@H](COC(=O)c3cccc(-c4ccccc4)c3)[C@@H](O)[C@H](O)[C@H]2O)[C@H](O)[C@@H](O)[C@@H]1O)c1cccc(-c2ccccc2)c1 [UM1040]	0.9	100		
CCCOc1cc(OCCC)cc(C(=O)OC[C@H]2O[C@H](O[C@H]3O[C@H](COC(=O)c4cc(OCCC)cc(OCCC)c4)[C@@H](O)[C@H](O)[C@H]3O)[C@H](O)[C@@H](O)[C@@H]2O)c1 [UM1050]			3.3	9
O=C(CCc1ccc(O)c(-c2ccccc2)c1)OC[C@H]1O[C@H](O[C@H]2O[C@H](COC(=O)CCc3ccc(O)c(-c4ccccc4)c3)[C@@H](O)[C@H](O)[C@H]2O)[C@H](O)[C@@H](O)[C@@H]1O [UM1064]	2.5	100		
O=C(OC[C@H]1O[C@H](O[C@H]2O[C@H](COC(=O)c3cccc(-c4ccccc4)c3O)[C@@H](O)[C@H](O)[C@H]2O)[C@H](O)[C@@H](O)[C@@H]1O)c1cccc(-c2ccccc2)c1O [UM1063]	2.5	100		

Source: patent publication US12319709B2, “Diaryl trehalose compounds and uses thereof” (THE UNIVERSITY OF MONTANA, priority 2018, dated 2025)
